Reference: ChEMBL document CHEMBL1201862, “PubChem BioAssay data set” (2004)
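Step 1: Grow cells in 96-well plates. Step 2: Expose to compound for 48 hours at 5 concentrations. Step 3: Interpolate endpoints linearly; if unreached, use highest concentration. GI50 = concentration required for 50% inhibition of growth.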 Activity calls are given as the source filed them. Rule as the data show it: active = GI50 up to about 1.1 µM and inactive = higher.

Key:
Assay in all cases: NCI tumour cell line growth inhibition, 48 h
[1] = system: CAKI-1
[2] = system: T47D
[3] = system: SR
[4] = system: SK-MEL-5
[5] = system: A549
[6] = system: SF-268
[7] = system: HOP-62
[8] = system: CCRF-CEM
[9] = system: OVCAR-5
[10] = system: RXF 393
[11] = system: MDA-MB-435
[12] = system: NCI-H226
[13] = system: HOP-92
[14] = system: ACHN
[15] = system: SK-OV-3
[16] = system: HT-29
[17] = system: K562
[18] = system: HCT-15
[19] = system: RPMI-8226
[20] = system: HCC 2998

SMILES	GI50 [1]	GI50 [2]	GI50 [3]	GI50 [4]	GI50 [5]	GI50 [6]	GI50 [7]	GI50 [8]	GI50 [9]	GI50 [10]	GI50 [11]	GI50 [12]	GI50 [13]	GI50 [14]	GI50 [15]	GI50 [16]	GI50 [17]	GI50 [18]	GI50 [19]	GI50 [20]
O=C(N/N=C1/C(=O)c2c3ccccc3cc3cccc1c23)c1ccccc1	26.4 µM (inactive)	3.69 µM (inactive)	> 58.6 µM (inactive)	23.6 µM (inactive)	12.2 µM (inactive)	30 µM (inactive)	19.5 µM (inactive)	> 53.1 µM (inactive)	34.3 µM (inactive)	22.1 µM (inactive)	25.9 µM (inactive)	> 43.8 µM (inactive)	51.9 µM (inactive)	29.1 µM (inactive)	31.8 µM (inactive)	30.2 µM (inactive)	> 59.6 µM (inactive)	49.1 µM	> 80.4 µM (inactive)	
CCCCCC1CC=CC(=O)O1 (stereo unspecified)	3.72 µM (inactive)	11.4 µM (inactive)	3.39 µM (inactive)	12.4 µM (inactive)	6.81 µM (inactive)	10.6 µM (inactive)	4.36 µM (inactive)	2.39 µM (inactive)	6.84 µM (inactive)	4.49 µM (inactive)	5.43 µM (inactive)		1.2 µM (inactive)	7.62 µM (inactive)	7.53 µM (inactive)	3.89 µM (inactive)	5.4 µM (inactive)	5.07 µM	1.91 µM (inactive)	
CC(C)=NNc1cnnc2ccc([N+](=O)[O-])cc12	52 µM (inactive)	65.2 µM (inactive)	30.3 µM (inactive)	55.3 µM (inactive)	> 100 µM (inactive)	> 100 µM (inactive)		32.9 µM (inactive)	> 100 µM (inactive)	> 100 µM (inactive)	67.8 µM (inactive)	> 100 µM (inactive)	> 100 µM (inactive)	23.9 µM (inactive)	> 100 µM (inactive)	> 100 µM (inactive)		57.5 µM	31.6 µM (inactive)	
O=C(O)COc1c(Cl)cc(Cl)c(C(c2c(Cl)cc(Cl)c(OCC(=O)O)c2Cl)C(Cl)(Cl)Cl)c1Cl	33.7 µM (inactive)	30.3 µM (inactive)		18.5 µM (inactive)	30.1 µM (inactive)	39.6 µM (inactive)	0.398 µM (active)		29.3 µM (inactive)	30.9 µM (inactive)	23 µM (inactive)	21.4 µM (inactive)	25.2 µM (inactive)	33.7 µM (inactive)	20.9 µM (inactive)	29 µM (inactive)	33.3 µM (inactive)	26.4 µM	28.3 µM (inactive)	12.1 µM (inactive)
COc1ccc(CC2C3=C(CCCC3)CCN2C)cc1 (stereo unspecified)	> 100 µM (inactive)	69.2 µM (inactive)		> 100 µM (inactive)	> 100 µM (inactive)	43.1 µM (inactive)	> 100 µM (inactive)	> 100 µM (inactive)	> 100 µM (inactive)	> 100 µM (inactive)	> 100 µM (inactive)	> 100 µM (inactive)		> 100 µM (inactive)	> 100 µM (inactive)	65.8 µM (inactive)	39 µM (inactive)	> 100 µM	> 100 µM (inactive)	45.4 µM (inactive)
Cc1cc2c(cc1C)[n+]([O-])c(C(F)(F)F)c(C(=O)c1ccccc1)[n+]2[O-]	0.76 µM (active)	0.724 µM (active)	0.527 µM (active)	1.73 µM (inactive)	1.42 µM (inactive)	1.91 µM (inactive)	0.299 µM (active)	2.02 µM (inactive)	3.08 µM (inactive)	3.13 µM (inactive)	2.69 µM (inactive)		0.167 µM (active)	2.39 µM (inactive)	4 µM (inactive)	1.71 µM (inactive)	2.27 µM (inactive)	3.24 µM	1.24 µM (inactive)	
Sc1nnc(Cc2ccc(Cl)cc2)[nH]1	56.2 µM (inactive)	29.4 µM (inactive)	58.6 µM (inactive)	39.6 µM (inactive)	44.1 µM (inactive)		93.1 µM (inactive)	63.1 µM (inactive)	> 100 µM (inactive)		88.3 µM (inactive)	65.5 µM (inactive)	16.2 µM (inactive)	45.3 µM (inactive)	68.5 µM (inactive)	> 100 µM (inactive)	48.8 µM (inactive)	59.6 µM		> 100 µM (inactive)
CNc1nc2c(C)ccc3nc(N(C)C)nc-3c2n1C	> 10 µM (inactive)	> 10 µM (inactive)		> 10 µM (inactive)	> 10 µM (inactive)	> 10 µM (inactive)	> 10 µM (inactive)	> 10 µM (inactive)	> 10 µM (inactive)	> 10 µM (inactive)	> 10 µM (inactive)	> 10 µM (inactive)	> 10 µM (inactive)	> 10 µM (inactive)	> 10 µM (inactive)	> 10 µM (inactive)	> 10 µM (inactive)	> 10 µM	> 10 µM (inactive)	> 10 µM (inactive)
CCOC(=O)/C=C/[C@@H](CC)O[Si](C(C)C)(C(C)C)C(C)C	> 100 µM (inactive)	> 100 µM (inactive)	74.6 µM (inactive)	> 100 µM (inactive)	> 100 µM (inactive)	> 100 µM (inactive)	67.6 µM (inactive)	42.2 µM (inactive)	> 100 µM (inactive)		> 100 µM (inactive)	> 100 µM (inactive)	> 100 µM (inactive)	> 100 µM (inactive)	> 100 µM (inactive)	> 100 µM (inactive)	> 100 µM (inactive)	> 100 µM	50.6 µM (inactive)	> 100 µM (inactive)
O=[N+]([O-])c1ccc(/C=C(/c2ccc([N+](=O)[O-])o2)S(=O)(=O)c2ccccc2)o1	18.5 µM (inactive)	11.4 µM (inactive)	1.02 µM (active)	11.9 µM (inactive)	18.7 µM (inactive)	15.6 µM (inactive)	17.8 µM (inactive)		18.6 µM (inactive)	25.1 µM (inactive)	15.2 µM (inactive)	1.42 µM (inactive)	12 µM (inactive)	2.84 µM (inactive)	29.4 µM (inactive)	4.49 µM (inactive)	2.96 µM (inactive)	11.6 µM	0.128 µM (active)	
N#CC(C#N)=C/C=C(\Sc1c(Cl)c(Cl)nc(Cl)c1Cl)c1ccc(Cl)cc1	14.5 µM (inactive)	31.6 µM (inactive)	3.75 µM (inactive)	13 µM (inactive)	> 100 µM (inactive)	19.6 µM (inactive)	29.2 µM (inactive)	4.74 µM (inactive)	21.5 µM (inactive)	18.5 µM (inactive)	5.4 µM (inactive)	23 µM (inactive)	26.5 µM (inactive)	16.8 µM (inactive)	24.4 µM (inactive)	18 µM (inactive)	5.93 µM (inactive)	12.9 µM	4.1 µM (inactive)	
Cc1nc(N)c(N2CCN(S(=O)(=O)N(Cc3ccccc3)Cc3ccccc3)CC2)c(O)n1		15.3 µM (inactive)	> 100 µM (inactive)		82.6 µM (inactive)	28.6 µM (inactive)	31.6 µM (inactive)	> 100 µM (inactive)	28 µM (inactive)		38.5 µM (inactive)	30.1 µM (inactive)		18.2 µM (inactive)		26.8 µM (inactive)	> 100 µM (inactive)	> 100 µM	> 100 µM (inactive)	87.3 µM (inactive)
O=C1CNc2cc(N3CCN(c4cccc(C(F)(F)F)c4)CC3)ccc2N1	> 100 µM (inactive)	32.3 µM (inactive)	46.3 µM (inactive)	18.9 µM (inactive)	24.7 µM (inactive)	> 100 µM (inactive)	> 100 µM (inactive)	38.4 µM (inactive)	68.5 µM (inactive)		95.5 µM (inactive)	19.6 µM (inactive)	> 100 µM (inactive)	50.6 µM (inactive)	> 100 µM (inactive)	70.6 µM (inactive)		38.9 µM	31.7 µM (inactive)	68.1 µM (inactive)
CNC1C(O)C(OC2C(N)CC(N)C(OC3OC(C(C)O)C(O)C(O)C3N)C2O)OCC1(C)O (stereo unspecified)	> 100 µM (inactive)	> 100 µM (inactive)	> 100 µM (inactive)	> 100 µM (inactive)	> 100 µM (inactive)	> 100 µM (inactive)	> 100 µM (inactive)	> 100 µM (inactive)	> 100 µM (inactive)		> 100 µM (inactive)	> 100 µM (inactive)		> 100 µM (inactive)	> 100 µM (inactive)	> 100 µM (inactive)	> 100 µM (inactive)	> 100 µM	> 100 µM (inactive)	> 100 µM (inactive)
NNc1nncn1N	> 100 µM (inactive)	63 µM (inactive)	39.1 µM (inactive)	> 100 µM (inactive)	> 100 µM (inactive)	> 100 µM (inactive)	> 100 µM (inactive)	1.25 µM (inactive)	> 100 µM (inactive)	> 100 µM (inactive)	19.2 µM (inactive)	> 100 µM (inactive)	> 100 µM (inactive)	> 100 µM (inactive)	> 100 µM (inactive)	> 100 µM (inactive)	> 76 µM (inactive)	> 100 µM	72.1 µM (inactive)	
CCc1n[nH]c(=O)n1/N=C(\C)c1ccc([N+](=O)[O-])cc1	> 100 µM (inactive)	> 100 µM (inactive)		> 100 µM (inactive)	86.7 µM (inactive)	26.3 µM (inactive)	> 100 µM (inactive)	> 100 µM (inactive)	> 100 µM (inactive)	78.5 µM (inactive)	59.7 µM (inactive)	> 100 µM (inactive)	> 100 µM (inactive)			36.6 µM (inactive)	97.7 µM (inactive)	> 100 µM	> 100 µM (inactive)	
